Measurements from paper PMC4103530, “Antimicrobial Activity of Pantothenol against Staphylococci Possessing a Prokaryotic Type II Pantothenate Kinase” (Microbes and Environments, 2014).
pIC50: −log10 of the molar value.

Tests used:
[1] = target: T1, EcCoaA (prokaryotic type I pantothenate kinase) (Escherichia coli, UniProt P0A6I3); assay: radiometric pantothenate kinase assay with D-[…]pantothenate; assay type: biochemical
T1 construct: gene coaA; recombinant from pET15b/bPanK in E. coli BL21 (DE3), nickel-resin purified, His-tag
T1 sequence (P0A6I3 1-316): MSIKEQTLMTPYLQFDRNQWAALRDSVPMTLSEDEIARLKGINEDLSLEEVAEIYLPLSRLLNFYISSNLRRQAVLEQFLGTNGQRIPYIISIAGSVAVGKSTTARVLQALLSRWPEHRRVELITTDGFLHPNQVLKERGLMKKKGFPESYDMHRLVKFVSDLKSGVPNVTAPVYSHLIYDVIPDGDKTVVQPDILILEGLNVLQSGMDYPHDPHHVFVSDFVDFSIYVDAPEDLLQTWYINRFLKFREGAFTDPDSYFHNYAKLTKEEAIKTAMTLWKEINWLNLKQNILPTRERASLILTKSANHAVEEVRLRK

[2] = target: T2, SaCoaA (prokaryotic type II pantothenate kinase) (Staphylococcus aureus, UniProt Q8NVG0); assay: as above; assay type: biochemical
T2 construct: gene coaW; recombinant from pET-28a(+) (pET-Sa-coaA) in E. coli BL21 (DE3), nickel-resin purified, His-tag
T2 sequence (Q8NVG0 1-267): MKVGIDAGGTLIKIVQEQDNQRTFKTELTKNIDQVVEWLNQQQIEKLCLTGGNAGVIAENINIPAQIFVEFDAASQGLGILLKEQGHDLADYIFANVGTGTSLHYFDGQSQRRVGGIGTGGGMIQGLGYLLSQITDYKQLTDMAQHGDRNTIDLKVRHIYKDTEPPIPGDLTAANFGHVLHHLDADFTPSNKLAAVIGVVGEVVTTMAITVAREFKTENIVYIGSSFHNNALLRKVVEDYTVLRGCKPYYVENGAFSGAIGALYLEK

How did the pIC50 [1] turn out when `CC(C)(CO)[C@@H](O)C(=O)NCCCO` [d-pantothenol] was run?
The pIC50 was 2.22.

And the pIC50 [2]?
The pIC50 was 2.77.
